Experiments:
Test in all cases: Induction of early apoptosis by CoQ10
Assay type in all cases: cell-based
Melanoma (Skmel 2) = test system: Melanoma (Skmel 2)
Experimental: (§1) The effects of Coenzyme Q10 treatment on a variety of oncogenic and normal cell lines were examined and compared. The sensitivity of cells to Coenzyme Q10 was assessed by monitoring induction of apoptosis. CoQ10 treatment of cells was carried out as described in detail below in the Materials and Methods. Induction of apoptosis was assessed in the treated cells by monitoring indicators of early apoptosis (e.g., Bcl-2 expression, caspase activation and by using annexin V assays) as described below. From these studies, the minimal CoQ10 dosage, e.g., concentration of CoQ10 and time of treatment, required to induce apoptosis in the panel of cell lines was determined.
(§2) Cells were cultured in T-75 flasks with relevant medium supplemented with 10% Fetal Bovine Serum (FBS), 1% PSA (penicillin, streptomycin, amphotericin B) (Invitrogen and Cellgro) in a 37° C. incubator with 5% CO2 levels until 70-80% confluence was reached. To harvest cells for treatment, flasks were primed with 1 mL Trypsin, aspirated, trypsinized with an additional 3 mL, and incubated at 37° C. for 3-5 minutes. Cells were then neutralized with an equal volume of media and the subsequent solution was centrifuged at […] for 8 minutes. The supernatant was aspirated and the cells were resuspended with 8.5 ml of media. A mixture of 500 ul of the resuspension and 9.5 ml of […] was read twice by a coulter counter and the appropriate number of cells to be seeded into each dish was determined. Control and concentration ranging from 0-200 μM groups were examined in triplicate. From a 500 μM CoQ-10 stock solution, serial dilutions were performed to achieve desired experimental concentration in appropriate dishes. Dishes were incubated in a 37° C. incubator with 5% CO2 levels for 0-72 hours depending on cell type and experimental protocol.
(§3) The volume of sample to load per well was determined using the raw mean concentration of protein obtained from the BCA protein assay. Approximately 30-60 μg of protein were loaded for each treatment time point. Proteins were run in triplicate on 12% Tris-HCl ready gels (Bio-Rad) or hand cast gels in 1× running buffer at 85 and 100 volts. Proteins were then transferred onto nitrocellulose paper for an hour at 100 volts, and blocked for another hour in a 5% milk solution. Membranes were placed in primary antibody (1 uL Ab:1000 uL TBST) (Cell Signaling) overnight at […] The following day, membranes were washed three times for ten minutes each with Tris-Buffered Saline Tween-20 (TBST), and secondary antibody (anti-rabbit; 1 uL Ab: 1000 uL TBST) was applied for an hour at […] Membranes were washed again three times for ten minutes with TBST and chemoluminescence using Pico or Femto substrate was completed (Pierce). Membranes were then developed at time intervals that produced the best visual results. After developing, membranes were kept in TBST at […] until Actin levels could be measured.
(§4) Cells were washed twice in PBS10× and resuspended in Binding Buffer (0.1 M HEPES, pH 7.4; 1.4 M NaCl; 25 mM CaCl2). Samples of 100 μl were added to a culture tube with 5 μl of annexin-PE dye or […]. The cells were mixed and incubated without light at room temperature for 15 minutes. After which, 400 μl of 1×Binding Buffer was added to each sample and they were subjected to analysis by flow cytometry.

[1] = test system: Mammary fiboblasts: 184A1 and 184B5; settings: BREAST: Mammary fiboblasts 184A1 and 184B5
Experimental: as §1, §2, §3, §4

Osteosarcoma (143b) = test system: Osteosarcoma (143b)
Experimental: as §1, §2, §3, §4

ZR-75 = test system: ZR-75
Experimental: as §1, §2, §3, §4

[2] = test system: SCC, Squamous cell carcinoma
Experimental: as §1, §2, §3, §4

Melanoma (Skmel 28) = test system: Melanoma (Skmel 28)
Experimental: as §1, §2, §3, §4

Fibroblasts (nFib) = settings: SKIN: Fibroblasts (nFib)
Experimental: as §1, §2, §3, §4

[3] = test system: Aortic smooth muscle (HASMC); settings: Heart: Aortic smooth muscle (HASMC)
Experimental: as §1, §2, §3, §4

Melanocytes (Hema, LP) = settings: SKIN: Melanocytes (Hema, LP)
Experimental: as §1, §2, §3, §4

SkBr-3 = test system: SkBr-3
Experimental: as §1, §2, §3, §4

PC3 = test system: PC3
Experimental: as §1, §2, §3, §4

[4] = test system: Keratinocytes (Heka, Hekn); settings: SKIN: Keratinocytes (Heka, Hekn)
Experimental: as §1, §2, §3, §4

MDA MB 468 = test system: MDA MB 468
Experimental: as §1, §2, §3, §4

MCF-7 = test system: MCF-7
Experimental: as §1, §2, §3, §4

BT-20 = test system: BT-20
Experimental: as §1, §2, §3, §4

Hep3B = test system: Hep3B
Experimental: as §1, §2, §3, §4

PaCa2 = test system: PaCa2
Experimental: as §1, §2, §3, §4

Ewing's sarcoma (NCI) = test system: Ewing's sarcoma (NCI)
Experimental: as §1, §2, §3, §4

HepG2 = test system: HepG2
Experimental: as §1, §2, §3, §4

**Q.** Coenzyme Q10 [CoQ10] was tested. Which “Minimal CoQ10 Concentration required for induction of early apoptosis” value (shortened to “Minimal CoQ10 Concentration required”) (Melanoma (Skmel 2); Melanoma (Skmel 2)) did it give?
**A.** 25 µM

**Q.** And the “Treatment Time required for induction of early apoptosis” value (from here on “Treatment Time required for induction”) (Melanoma (Skmel 2); Melanoma (Skmel 2))?
**A.** 24 h

**Q.** And the “Indication of Early apoptosis (Bcl-2, annexin V, or caspase activation)” value (“Indication of Early apoptosis” below) (Melanoma (Skmel 2); SKIN: Melanoma (Skmel 2))?
**A.** Very Strong

**Q.** What about the “Indication of Early apoptosis” value [1] of the same substance?
**A.** None

**Q.** And the “Indication of Early apoptosis” value (Osteosarcoma (143b); BONE: Osteosarcoma (143b))?
**A.** Very Strong

**Q.** What about the “Minimal CoQ10 Concentration required” value (Osteosarcoma (143b); Osteosarcoma (143b)) of the same substance?
**A.** 50 µM

**Q.** And the “Treatment Time required for induction” value (Osteosarcoma (143b); Osteosarcoma (143b))?
**A.** 48 h

**Q.** What about the “Indication of Early apoptosis” value (ZR-75; BREAST: ZR-75) of the same substance?
**A.** Slight

**Q.** What about the “Minimal CoQ10 Concentration required” value (ZR-75; ZR-75) of the same substance?
**A.** 200 µM

**Q.** What about the “Treatment Time required for induction” value (ZR-75; ZR-75) of the same substance?
**A.** 72 h

**Q.** What about the “Minimal CoQ10 Concentration required” value ([2]; SCC) of the same substance?
**A.** 25 µM

**Q.** And the “Treatment Time required for induction” value ([2]; SCC)?
**A.** 24 h

**Q.** And the “Indication of Early apoptosis” value ([2]; SKIN: SCC)?
**A.** Very Strong

**Q.** And the “Minimal CoQ10 Concentration required” value (Melanoma (Skmel 28); Melanoma (Skmel 28))?
**A.** 20 µM

**Q.** And the “Treatment Time required for induction” value (Melanoma (Skmel 28); Melanoma (Skmel 28))?
**A.** 24 h

**Q.** And the “Indication of Early apoptosis” value (Melanoma (Skmel 28); SKIN: Melanoma (Skmel 28))?
**A.** Strong

**Q.** And the “Indication of Early apoptosis” value (Fibroblasts (nFib))?
**A.** None

**Q.** What about the “Indication of Early apoptosis” value [3] of the same substance?
**A.** None

**Q.** And the “Indication of Early apoptosis” value (Melanocytes (Hema, LP))?
**A.** None

**Q.** And the “Indication of Early apoptosis” value (SkBr-3; BREAST: SkBr-3)?
**A.** Very Strong

**Q.** What about the “Minimal CoQ10 Concentration required” value (SkBr-3; SkBr-3) of the same substance?
**A.** 50 µM

**Q.** And the “Treatment Time required for induction” value (SkBr-3; SkBr-3)?
**A.** 24 h

**Q.** And the “Minimal CoQ10 Concentration required” value (PC3; PC3)?
**A.** 25 µM

**Q.** And the “Treatment Time required for induction” value (PC3; PC3)?
**A.** 24 h

**Q.** And the “Indication of Early apoptosis” value (PC3; PROSTATE: PC3)?
**A.** Very Strong

**Q.** And the “Indication of Early apoptosis” value [4]?
**A.** None

**Q.** What about the “Indication of Early apoptosis” value (MDA MB 468; BREAST: MDA MB 468) of the same substance?
**A.** Strong

**Q.** What about the “Minimal CoQ10 Concentration required” value (MDA MB 468; MDA MB 468) of the same substance?
**A.** 100 µM

**Q.** What about the “Treatment Time required for induction” value (MDA MB 468; MDA MB 468) of the same substance?
**A.** 48 h

**Q.** What about the “Indication of Early apoptosis” value (MCF-7; BREAST: MCF-7) of the same substance?
**A.** Strong

**Q.** What about the “Minimal CoQ10 Concentration required” value (MCF-7; MCF-7) of the same substance?
**A.** 50 µM

**Q.** What about the “Treatment Time required for induction” value (MCF-7; MCF-7) of the same substance?
**A.** 48 h

**Q.** What about the “Indication of Early apoptosis” value (BT-20; BREAST: BT-20) of the same substance?
**A.** Strong

**Q.** And the “Minimal CoQ10 Concentration required” value (BT-20; BT-20)?
**A.** 100 µM

**Q.** And the “Treatment Time required for induction” value (BT-20; BT-20)?
**A.** 48 h

**Q.** And the “Minimal CoQ10 Concentration required” value (Hep3B; Hep3B)?
**A.** 50 µM

**Q.** What about the “Treatment Time required for induction” value (Hep3B; Hep3B) of the same substance?
**A.** 24 h

**Q.** What about the “Indication of Early apoptosis” value (Hep3B; LIVER: Hep3B) of the same substance?
**A.** Very Strong

**Q.** What about the “Indication of Early apoptosis” value (PaCa2; PANCREAS: PaCa2) of the same substance?
**A.** Very Strong

**Q.** What about the “Minimal CoQ10 Concentration required” value (PaCa2; PaCa2) of the same substance?
**A.** 25 µM

**Q.** And the “Treatment Time required for induction” value (PaCa2; PaCa2)?
**A.** 24 h

**Q.** What about the “Minimal CoQ10 Concentration required” value (Ewing's sarcoma (NCI)) of the same substance?
**A.** 5 µM

**Q.** What about the “Treatment Time required for induction” value (Ewing's sarcoma (NCI)) of the same substance?
**A.** 1 h

**Q.** What about the “Minimal CoQ10 Concentration required” value (HepG2; HepG2) of the same substance?
**A.** 50 µM

**Q.** And the “Treatment Time required for induction” value (HepG2; HepG2)?
**A.** 24 h

**Q.** And the “Indication of Early apoptosis” value (HepG2; LIVER: HepG2)?
**A.** Very Strong
